From US20060100190A1, “Motexafin lutetium phototherapy with low fluences for treating vascular inflammation” (Pharmacyclics, Inc., priority 2004, published 2006)

How the values were obtained:
[1] = test system: Watanabe Heritable Hyperlipidemic (WHHL) rabbits; test: MLu phototherapy (732 nm, low fluences) of aortic atheroma in cholesterol-fed WHHL rabbits; format: in vivo, rabbit
From the text: FIG. 1 depicts treated segments of the rabbit aortic tree. In each rabbit, both T1 and T2 segments were about 30 mm in length with another 30 mm of buffer in between. Both T1 and T2 received the same fluence (J/cmf) at different fluence rates (mW/cmf) because T1 illumination period was shorter at 400 seconds compared to 900 seconds for T2.
Thirty 8 months old male Watanabe Heritable Hyperlipidemic (WHHL) rabbits were randomized after 3 weeks of 1% cholesterol feeding to either control or MLu groups (10 mg/kg, iv via ear vein). Intravascular illumination was performed 24 hours post-MLu using a fiber with a 30 mm active diffuser tip to deliver escalating fluences (30-175 J/cmf, 732 nm) for 400 s (upper) and 900 s (lower thoracic/abdominal aorta); control received no light. Rabbits were then switched to a normal diet immediately after phototherapy and sacrificed 3 weeks later. Aortas were harvested and examined for plaque (I/M ratios), Mac (RAM11), smooth muscle cell (myosin) and collagen (Picrosirius Red) changes.

[2] = test system: Fat-fed New Zealand rabbits; test: MLu phototherapy at low light fluence in fat-fed New Zealand rabbits; format: in vivo, rabbit; conditions: PT at 732 nm, low light fluence 30-100 J/cmf
From the text: The methods, compositions, strategies and techniques described herein include processes to treat diffuse inflammation in blood vessels by administering a photo-activatable compound and low light fluence in the range of in the range of about 10 to about 400 Joules/cm of illuminated length in the general vicinity of the inflammation.

atheroma = conditions: reported; cited from earlier work

CC(=O)[O-].CC(=O)[O-].CCc1c(CC)c2cc3nc(cnc4cc(OCCOCCOCCOC)c(OCCOCCOCCOC)cc4ncc4nc(cc1[n-]2)C(CCCO)=C4C)C(C)=C3CCCO.O.[Lu+3] [MLu, motexafin lutetium]
macrophages in plaques ([1]; 30-175 J/cmf delivered over 400 s and 900 s): macrophage depletion | macrophage burden ([1]; all tested fluence groups (30-175 J/cmf) vs. control, p<0.05, both T1 and T2 treated segments): statistical significant reduction in macrophage burden | collagen (picrosirius red, bright-field and polarization microscopy) ([1]; treated 30 J/cmf, 400 s vs. control): denser packing of matured collagen | smooth muscle cell (SMC) content, histology of myosin-stained areas ([1]; treated 30 J/cmf, 400 s vs. control (non-phototherapy)): did not appear to decrease | SMC content (myosin positive areas), planimetry, % of the intima ([1]; treated sections, 30 J/cmf, 400 s, control 43.1±3.8%): 50.9±9.7% | diffuse inflammation in blood vessels (based on decrease in macrophage burden) [2]: significant reduction in diffuse inflammation | effect on macrophages (Mac) following phototherapy (PT) (atheroma): destroys Mac by inducing apoptosis
